Data taken from patent publication US20190358182A1, “NOVEL MECHANISM FOR DECREASING OPIOID REWARD” (THE TRUSTEES OF INDIANA UNIVERSITY, priority 2018, published 2019).
“Also recorded” adds a separate entry of the source.

Experiments:
[1] = tested on: rats; assay: Single trial conditioned place preference (CPP); type: in vivo, rat; conditions: for single trial CPP to the inhibitor alone: acute treatment alone, data not shown; for single trial morphine-induced CPP on acute co-treatment: rats, FIG. 3B, 3C
Text: FIGS. 3A-3C present data from a conditioned place preference study where one chamber was paired with the drug treatment and the other chamber was paired with the vehicle. Animals are subsequently tested in the drug free state to determine if the drug pairing produced reward or aversion in the animals.

[2] = tested on: NMDA-induced NO formation; assay: NMDA-induced NO formation / cGMP levels in primary hippocampal cultures; type: cell-based; conditions: for NMDA-induced NO formation: data not shown, Smith et al. (2016); for NMDA-stimulated cGMP levels: primary hippocampal cultures, published in Smith et al. (2016)
[3] = molecular target: T1, PSD95-nNOS (Homo sapiens, UniProt P29475+P78352); assay: Alphascreen in vitro assay of PSD95-nNOS binding (purified proteins); conditions: purified nNOS and PSD95 proteins, FIG. 2
Text: Mechanism: We developed an in vitro assay using Alphascreen to establish whether IC87201 and ZL006 directly disrupt interactions between purified nNOS and PSD95 proteins. […] A later group identified ZL006.

[4] = Novel object recognition test; type: in vivo; conditions: data not shown
[5] = Morris Water maze; type: in vivo; conditions: FIG. 5A
[6] = tested on: rats; conditions: for conditioned place preference to morphine on coadministration: inhibitor 10 mg/kg i.p. × 4 pairings with morphine 6 mg/kg i.p., FIG. 4E, 4F
[7] = Rota-rod test; type: in vivo; conditions: 10-30 mg/kg i.p., FIG. 5B
[8] = molecular target: PSD95-ERB4 (Homo sapiens, UniProt P78352); assay: Alphascreen, interaction of PSD95 with unrelated proteins; type: binding; conditions: FIG. 2
[9] = cited from earlier work; for pain hypersensitivity / pathological pain: chronic pain models; for nociceptive responding / basal nociceptive thresholds without injury: naïve animals, absence of injury
[10] = tested on: rats; assay: Radial arm maze task for source and spatial working memory; conditions: MK801 0.1 or 0.2 mg/kg i.p., IC87201 and ZL006 10 mg/kg i.p., 30 min after injection
Description: Rats were trained in a radial arm maze task that tests both source and spatial working memory for these experiments. Data are average of three trials 30 min after drug injection (n=6/group).
Memory impairment can confound CPP studies that depend on learning. Experiments were conducted to determine whether PSD95-nNOS inhibitors impair normal memory functions or show favorable side effect profiles compared to NMDAR antagonist MK801. We used a highly sensitive “source memory” task developed by applicants for use in rats to better mimic types of memory that are actually impaired in humans.

[11] = tested on: rats; conditions: cited from earlier work
[12] = tested on: DA efflux in NAc shell; assay: Fast-scan cyclic voltammetry of electrically evoked DA in NAc shell; type: in vivo, rat
Text: Design and Rationale: Although FSCV can record spontaneously occurring DA transients in behaving animals, the anesthetized preparation is preferred because it provides reliable and reproducible DA signals independent of behavioral activity. In fact, the fluctuating and intermittent nature of behavior-related DA signals (e.g.,) could confound efforts to establish a first-ever characterization of PSD95-nNOS disrupters on DA dynamics. […] Rats are fixed in a stereotaxic frame, and a carbon-fiber working electrode (6 μm diameter) is lowered into NAc shell. A bipolar stimulating electrode is lowered over the ipsilateral MFB to evoke endogenous DA release. An Ag/AgCl reference is placed on the contralateral cortex. […] Voltammograms are obtained every 100 ms at a scan rate of 400 v/s.
The basic design is to collect baseline DA signals (30 min) evoked by MFB stimulation, administer (ip) test drug(s) or vehicle, and collect post-administration evoked DA signals. […] The effects of each compound (injected i.p.) will be monitored for at least 60 min and tested in separate groups of rats (n=10/group). […] To evoke DA release, we apply a biphasic current (60 Hz, 0.4 s, 300 μA) to the stimulating electrode.
Stimulations at 60 Hz are applied every 2 min to ensure renewal of the readily releasable DA pool. Evoked signals are resolved into respective rates for release and uptake, and pre- and postdrug data are compared. Upon completion of recording, the working electrode is used for postcalibration testing to estimate the in vivo concentration of DA. The analysis used to assess changes in DA release and uptake involves a modification of Michaelis-Menten kinetics. We use mathematical modeling that describes the rate of change in evoked DA concentration as the counteracting balance of release and reuptake: d[DA]/dt=[DA]p*f−Vmax/(Km/[DA]+1), where [DA] is the extracellular DA concentration, [DA]p refers to the extracellular DA concentration evoked per stimulus pulse, Vmax represents the Michaelis-Menten term for maximal uptake rate, Km is the Michaelis-Menten term inversely proportional to transporter affinity, and f is the frequency of the stimulation train. Thus, both Km and Vmax are Michaelis-Menten rate constants that describe uptake (see FIG. 7B). [DA]p describes the rate of stimulated release. Km is held constant at a 0.2 μM, the reported value in striatum for anesthetized rodents. [DA]p and Vmax are determined by the above equation in combination with curve-fitting software that incorporates a simplex minimization algorithm.

[13] = tested on: mice; conditions: wild type (WT) but not nNOS −/− mice; cited from earlier work
[14] = molecular target: T2, nNOS with PSD95 (Mus musculus, UniProt Q62108+Q9Z0J4); conditions: WT but not nNOS −/− mice; cited from earlier work
T2 construct: host or cells: ischemic cortex of wild-type mice

[15] = molecular target: T1, PSD95-nNOS; conditions: as described for the control compound; cited from earlier work
[16] = tested on: rats; assay: Morphine self-administration, FR1 schedule (preliminary study); type: in vivo, rat; conditions: morphine 0.1 mg/kg/injection

Chain of PSD95-ERB4 (P78352 whole entry): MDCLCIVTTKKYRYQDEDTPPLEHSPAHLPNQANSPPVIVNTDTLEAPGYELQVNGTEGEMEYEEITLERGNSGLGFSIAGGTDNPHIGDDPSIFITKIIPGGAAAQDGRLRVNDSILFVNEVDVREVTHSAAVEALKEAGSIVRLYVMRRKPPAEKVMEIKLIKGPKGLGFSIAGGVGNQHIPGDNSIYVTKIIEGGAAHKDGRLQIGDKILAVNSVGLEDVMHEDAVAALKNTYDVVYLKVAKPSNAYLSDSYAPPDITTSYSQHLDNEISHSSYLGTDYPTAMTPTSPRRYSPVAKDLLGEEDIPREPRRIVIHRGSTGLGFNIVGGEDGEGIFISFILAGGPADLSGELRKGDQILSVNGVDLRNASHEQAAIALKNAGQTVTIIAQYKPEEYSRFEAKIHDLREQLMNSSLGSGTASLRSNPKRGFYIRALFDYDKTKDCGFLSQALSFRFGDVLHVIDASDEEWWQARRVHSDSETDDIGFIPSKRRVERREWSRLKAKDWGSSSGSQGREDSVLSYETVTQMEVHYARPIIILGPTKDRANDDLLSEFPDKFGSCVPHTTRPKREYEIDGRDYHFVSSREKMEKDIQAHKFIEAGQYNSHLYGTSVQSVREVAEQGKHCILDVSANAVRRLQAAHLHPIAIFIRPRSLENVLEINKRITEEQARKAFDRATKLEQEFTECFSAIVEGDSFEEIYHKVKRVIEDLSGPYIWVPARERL
T1 sequence (P78352 whole entry): as above
T1 sequence (P29475 whole entry): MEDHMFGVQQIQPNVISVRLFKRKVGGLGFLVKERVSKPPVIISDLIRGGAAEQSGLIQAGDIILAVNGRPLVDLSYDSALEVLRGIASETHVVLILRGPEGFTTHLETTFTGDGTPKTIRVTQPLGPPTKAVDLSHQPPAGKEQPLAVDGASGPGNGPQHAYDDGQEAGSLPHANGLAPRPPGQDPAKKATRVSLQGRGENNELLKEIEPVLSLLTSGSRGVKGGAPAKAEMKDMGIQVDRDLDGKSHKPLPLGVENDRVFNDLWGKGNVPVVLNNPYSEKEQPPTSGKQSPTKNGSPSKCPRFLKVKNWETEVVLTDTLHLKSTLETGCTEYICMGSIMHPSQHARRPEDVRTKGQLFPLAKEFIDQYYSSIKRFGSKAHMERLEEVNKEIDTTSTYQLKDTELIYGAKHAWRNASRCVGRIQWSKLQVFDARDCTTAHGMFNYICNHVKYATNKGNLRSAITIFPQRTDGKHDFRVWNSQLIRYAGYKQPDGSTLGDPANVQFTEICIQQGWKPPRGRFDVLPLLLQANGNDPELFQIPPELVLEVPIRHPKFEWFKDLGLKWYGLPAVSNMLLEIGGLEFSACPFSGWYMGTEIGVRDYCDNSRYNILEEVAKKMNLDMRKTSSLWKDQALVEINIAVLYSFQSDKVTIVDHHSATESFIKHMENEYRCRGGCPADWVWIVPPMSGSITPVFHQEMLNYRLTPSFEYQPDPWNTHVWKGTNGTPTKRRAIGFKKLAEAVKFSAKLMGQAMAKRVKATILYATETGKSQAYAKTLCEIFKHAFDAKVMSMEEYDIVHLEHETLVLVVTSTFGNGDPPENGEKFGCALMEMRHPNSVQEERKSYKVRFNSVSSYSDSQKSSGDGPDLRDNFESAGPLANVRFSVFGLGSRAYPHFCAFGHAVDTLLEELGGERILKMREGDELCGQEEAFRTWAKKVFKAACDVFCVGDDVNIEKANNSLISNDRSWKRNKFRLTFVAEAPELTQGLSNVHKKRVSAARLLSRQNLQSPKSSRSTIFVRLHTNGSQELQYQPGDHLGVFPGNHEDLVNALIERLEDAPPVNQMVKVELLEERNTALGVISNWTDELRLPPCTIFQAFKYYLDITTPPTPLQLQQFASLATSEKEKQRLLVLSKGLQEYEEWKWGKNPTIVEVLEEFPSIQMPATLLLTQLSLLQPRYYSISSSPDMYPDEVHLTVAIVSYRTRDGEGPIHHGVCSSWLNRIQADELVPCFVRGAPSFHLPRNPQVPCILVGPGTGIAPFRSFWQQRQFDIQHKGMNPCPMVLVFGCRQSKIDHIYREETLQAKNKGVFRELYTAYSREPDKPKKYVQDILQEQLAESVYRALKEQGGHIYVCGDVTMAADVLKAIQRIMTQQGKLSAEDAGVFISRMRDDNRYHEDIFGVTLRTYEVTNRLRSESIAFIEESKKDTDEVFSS
T2 sequence (Q9Z0J4 whole entry): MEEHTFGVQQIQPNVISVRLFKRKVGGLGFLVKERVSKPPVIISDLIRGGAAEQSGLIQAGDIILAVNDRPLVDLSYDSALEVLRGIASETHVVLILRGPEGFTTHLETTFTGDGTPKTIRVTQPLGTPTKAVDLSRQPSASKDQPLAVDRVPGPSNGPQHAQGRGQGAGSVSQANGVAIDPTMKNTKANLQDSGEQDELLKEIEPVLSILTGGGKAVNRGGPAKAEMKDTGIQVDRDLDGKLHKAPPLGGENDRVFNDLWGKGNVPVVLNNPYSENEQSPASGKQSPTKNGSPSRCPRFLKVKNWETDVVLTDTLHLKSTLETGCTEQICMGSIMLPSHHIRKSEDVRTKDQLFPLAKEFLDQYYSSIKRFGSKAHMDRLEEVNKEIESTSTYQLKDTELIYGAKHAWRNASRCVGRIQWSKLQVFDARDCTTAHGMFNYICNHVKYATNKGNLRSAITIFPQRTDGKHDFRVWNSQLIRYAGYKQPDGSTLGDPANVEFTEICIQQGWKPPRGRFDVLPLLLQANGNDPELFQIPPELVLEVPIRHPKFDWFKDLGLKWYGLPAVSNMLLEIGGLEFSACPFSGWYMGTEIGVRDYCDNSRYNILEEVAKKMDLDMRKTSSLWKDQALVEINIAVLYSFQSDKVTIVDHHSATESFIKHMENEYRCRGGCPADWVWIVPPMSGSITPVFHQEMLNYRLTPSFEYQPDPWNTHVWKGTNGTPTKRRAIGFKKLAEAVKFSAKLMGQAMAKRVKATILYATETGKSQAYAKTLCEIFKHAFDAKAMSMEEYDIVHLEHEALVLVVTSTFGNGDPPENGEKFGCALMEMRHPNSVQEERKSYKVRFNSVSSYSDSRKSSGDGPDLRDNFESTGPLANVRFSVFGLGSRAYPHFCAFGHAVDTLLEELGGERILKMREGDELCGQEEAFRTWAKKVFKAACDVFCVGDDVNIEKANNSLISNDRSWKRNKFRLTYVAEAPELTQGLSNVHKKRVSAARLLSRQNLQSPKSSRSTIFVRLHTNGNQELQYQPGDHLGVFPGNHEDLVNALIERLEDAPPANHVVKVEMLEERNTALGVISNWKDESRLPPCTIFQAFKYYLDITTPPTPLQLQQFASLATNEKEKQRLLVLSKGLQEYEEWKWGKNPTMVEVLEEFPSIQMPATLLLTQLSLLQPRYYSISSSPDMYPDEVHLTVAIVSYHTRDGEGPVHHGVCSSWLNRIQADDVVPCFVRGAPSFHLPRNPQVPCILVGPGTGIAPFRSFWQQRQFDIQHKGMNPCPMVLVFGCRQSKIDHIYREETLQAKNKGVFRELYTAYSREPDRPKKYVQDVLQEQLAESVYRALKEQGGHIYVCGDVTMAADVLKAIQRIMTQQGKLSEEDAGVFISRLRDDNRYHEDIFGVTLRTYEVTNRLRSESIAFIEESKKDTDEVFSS
T2 sequence (Q62108 whole entry): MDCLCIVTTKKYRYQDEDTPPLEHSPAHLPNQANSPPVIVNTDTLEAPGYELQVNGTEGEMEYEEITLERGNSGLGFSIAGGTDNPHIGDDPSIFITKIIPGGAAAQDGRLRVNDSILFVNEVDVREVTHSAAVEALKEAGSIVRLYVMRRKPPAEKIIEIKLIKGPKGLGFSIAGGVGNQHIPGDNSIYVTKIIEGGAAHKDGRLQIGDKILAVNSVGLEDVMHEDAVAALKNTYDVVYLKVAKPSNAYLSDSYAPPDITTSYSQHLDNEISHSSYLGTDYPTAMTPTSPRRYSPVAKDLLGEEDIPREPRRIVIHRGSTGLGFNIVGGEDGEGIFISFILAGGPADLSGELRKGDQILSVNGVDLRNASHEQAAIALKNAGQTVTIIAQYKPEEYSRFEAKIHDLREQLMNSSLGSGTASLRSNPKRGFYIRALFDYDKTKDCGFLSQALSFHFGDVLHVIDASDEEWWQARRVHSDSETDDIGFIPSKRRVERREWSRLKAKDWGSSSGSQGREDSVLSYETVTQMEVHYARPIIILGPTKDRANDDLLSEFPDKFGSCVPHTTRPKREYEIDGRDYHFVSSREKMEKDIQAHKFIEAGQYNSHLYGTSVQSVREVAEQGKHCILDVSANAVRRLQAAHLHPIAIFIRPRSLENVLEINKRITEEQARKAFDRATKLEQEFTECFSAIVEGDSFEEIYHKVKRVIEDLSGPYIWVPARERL

Oc1c(Cl)cc(Cl)cc1CNc1ccc2[nH]nnc2c1 [IC87201]
single trial CPP to the inhibitor alone [1]: failed to do so | single trial morphine-induced CPP on acute co-treatment ([1]; morphine 6 mg/kg i.p.): blocked | NMDA-induced NO formation [2]: inhibit NMDA-induced NO formation | NMDA-stimulated cGMP levels [2]: suppressed NMDA-stimulated cGMP levels | disruption of PSD95-nNOS interaction / binding [3]: disrupt PSD95-nNOS; also recorded: inhibited PSD95-nNOS binding | memory in the novel object recognition test [4]: did not impair memory | memory in the Morris Water maze [5]: do not impair memory | conditioned place preference to morphine on coadministration [6]: conditioned place preference to morphine was no longer observed | motor performance in the rota-rod test [7]: did not impair | disruption of unrelated PSD95-ERB4 interactions [8]: not unrelated PSD95-ERB4 interactions; also recorded: without disrupting interaction of PSD95 with unrelated proteins | pain hypersensitivity / pathological pain [9]: suppress pain hypersensitivity; also recorded: suppresses pathological pain | nociceptive responding / basal nociceptive thresholds without injury [9]: without altering nociceptive responding; also recorded: without altering basal nociceptive thresholds | source memory [10]: failed to impair spatial memory or source memory | spatial working memory [10]: failed to impair spatial memory or source memory

COC(=O)[C@@H](N)CCCNC(=N)N[N+](=O)[O-] [L-NAME]
L-arginine enhancement of acquisition of CPP to morphine ([11]; NOS inhibitor): this enhancement was blocked

N=C(N)NCCC[C@H](N)C(=O)O [L-arginine]
acquisition of CPP to morphine ([11]; NO donor in the central amygdala): increased acquisition of CPP to morphine

C[C@]12N[C@H](Cc3ccccc31)c1ccccc12 [MK801, reference compound]
NMDA-stimulated cGMP levels [2]: suppressed NMDA-stimulated cGMP levels | morphine-induced CPP ([11]; rats, MK801 0.1 mg/kg i.p., doses that do not alter chamber preference): blocked | source memory [10]: eliminated (i.e. did not differ from chance) | spatial working memory [10]: unaffected

O=C(O)c1ccc(NCc2cc(Cl)cc(Cl)c2O)cc1O [ZL006]
single trial CPP to the inhibitor alone [1]: failed to do so | single trial morphine-induced CPP on acute co-treatment ([1]; morphine 6 mg/kg i.p.): blocked | NMDA-induced NO formation [2]: inhibit NMDA-induced NO formation | NMDA-stimulated cGMP levels [2]: suppressed NMDA-stimulated cGMP levels | disruption of PSD95-nNOS interaction / binding [3]: disrupt PSD95-nNOS; also recorded: inhibited PSD95-nNOS binding | morphine-induced dopamine efflux on co-administration ([12]; ZL006 10 mg/kg i.p. with morphine 6 mg/kg i.p., NAc shell, FIG. 8C): blocked the morphine-induced increase in evoked DA in NAc shell; also recorded: suppresses morphine-induced dopamine efflux in nucleus accumbens shell | amount of DA released per stimulus pulse ([12]; ZL006 10 mg/kg i.p., FIG. 7C): does not affect the amount of DA released per stimulus pulse | amount of DA uptake per stimulus pulse ([12]; ZL006 10 mg/kg i.p., FIG. 7D): does not affect the amount of DA uptake per stimulus pulse | evoked DA response before and 30 min after drug ([12]; ZL006 10 mg/kg i.p., anesthetized rat, FIG. 8B, pilot data, 10 mg/kg): clear decrease in DA signal within 30 min; also recorded: decrease in DA evoked response | evoked dopamine (DA) efflux, drug alone ([12]; medial forebrain bundle stimulation, morphine 6 mg/kg i.p., ZL006 10 mg/kg i.p., FIG. 7A, 7B): does not increase dopamine (DA) efflux | ischemia induced damage [13]: inhibits ischemia induced damage | memory in the novel object recognition test [4]: did not impair memory | memory in the Morris Water maze [5]: do not impair memory | conditioned place preference to morphine on coadministration [6]: conditioned place preference to morphine was no longer observed | motor performance in the rota-rod test [7]: did not impair | association of nNOS with PSD95 in ischemic cortices [14]: inhibits the association of nNOS with PSD95 in ischemic cortices | disruption of unrelated PSD95-ERB4 interactions [8]: not unrelated PSD95-ERB4 interactions; also recorded: without disrupting interaction of PSD95 with unrelated proteins | pain hypersensitivity / pathological pain [9]: suppress pain hypersensitivity | nociceptive responding / basal nociceptive thresholds without injury [9]: without altering nociceptive responding | source memory [10]: failed to impair spatial memory or source memory | spatial working memory [10]: failed to impair spatial memory or source memory

O=C(O)c1cc(NCc2cc(Cl)cc(Cl)c2O)ccc1O [ZL007, reference compound]
disruption of PSD95-nNOS interactions by the inactive analog [15]: does not disrupt PSD95-nNOS interactions

CN1CC[C@]23c4c5ccc(O)c4O[C@H]2[C@@H](O)C=C[C@H]3[C@H]1C5 [morphine, reference compound]
single trial CPP to the drug alone (morphine) ([1]; naïve rats, morphine 6 mg/kg i.p., FIG. 3A): robust single trial CPP | conditioned place preference to morphine, repeated pairings ([6]; morphine 6 or 10 mg/kg i.p. × 4 pairings, FIG. 4C, 4D): produced robust conditioned place preference | active versus inactive lever presses in self-administration ([16]; FR1, naïve, sham and neuropathic rats): Active lever presses were greater than inactive presses in all groups | mechanical thresholds ([16]; naïve rats, FIG. 6A): did not alter mechanical thresholds
